Legend:
MIAPaCa-2 (pancreas) = assay: In vitro cytotoxic activity assay (MTT), MIAPaCa-2; assay type: cell-based; conditions: Homo sapiens, MIA PaCa-2; MIAPaCa-2 (pancreas) cells, exposed for 96 hours; read-out: IC50, concentration of compound eliciting a 50% inhibition of cell proliferation
Experimental: (§1) Compounds 1-16 were screened for their in vitro cytotoxic activity utilizing a 3-(4,5-dimethyl-thiazol-2-yl)-2,5-diphenyltetrazolium bromide (MTT) assay against selected cancer human cell lines consisting of PC3 (prostate), HCT116 (colon), A375 (melanoma), H1299 (lung), MIAPaCa-2 (pancreas), HL60 (leukemia), MCF7 (breast), MDA-MB-231 (breast) (T. Mosmann, J. Immunol. Meth., 1983, 65, 55-63). The cells were cultured at 37° C. in RMPI1640 medium supplemented with 10% fetal bovine serum, 50 IU/mL penicillin, and 50 μg/mL streptomycin in a 5% CO2 incubator. All cells were sub-cultured 3 times/week by trypsinisation. Viable cells were seeded and allowed to adhere for 12 h before a test drug was added in 96-well plates at an initial density of 1.0×10^5 cells/mL. Tumour cell lines were separately exposed to various concentrations of the tested compounds followed by incubation at a temperature of 37° C. during 96 h inside a medium of fresh RMPI 1640. Cells were subsequently incubated at 37° C. using MTT at 0.5 mg/mL during 4 h. After removal of supernatant, formazan crystals were dissolved in isopropanol and the optical density was measured at 570 nm. CX-4945 was used as a positive control.

HL60 (leukemia) = assay: In vitro cytotoxic activity assay (MTT), HL60; assay type: cell-based; conditions: Homo sapiens, HL-60; HL60 (leukemia) cells, exposed for 96 hours; read-out: IC50, concentration of compound eliciting a 50% inhibition of cell proliferation
Experimental: as §1

recombinant human CK2 = target: T1, recombinant human CK2 (Homo sapiens, UniProt P68400); assay: CK2 Kinase Assay (radiometric, [γ-33P]ATP); assay type: biochemical; conditions: final ATP concentration 15 μM, 10 min at 30° C.; read-out: protein kinase CK2 activity IC50
T1 construct: purchased Millipore
T1 sequence (P68400 whole entry): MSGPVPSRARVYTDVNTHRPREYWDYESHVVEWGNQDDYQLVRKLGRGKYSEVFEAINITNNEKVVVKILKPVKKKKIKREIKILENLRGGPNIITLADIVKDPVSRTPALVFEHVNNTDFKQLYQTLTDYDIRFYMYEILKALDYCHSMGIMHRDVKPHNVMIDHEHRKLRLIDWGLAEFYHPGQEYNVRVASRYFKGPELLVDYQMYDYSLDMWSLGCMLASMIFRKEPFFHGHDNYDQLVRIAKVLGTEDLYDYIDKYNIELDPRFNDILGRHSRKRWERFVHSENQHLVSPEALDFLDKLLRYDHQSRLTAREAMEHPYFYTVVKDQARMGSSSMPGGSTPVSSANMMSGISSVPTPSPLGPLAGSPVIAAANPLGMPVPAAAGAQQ
T1 sequence (P67870 whole entry partner): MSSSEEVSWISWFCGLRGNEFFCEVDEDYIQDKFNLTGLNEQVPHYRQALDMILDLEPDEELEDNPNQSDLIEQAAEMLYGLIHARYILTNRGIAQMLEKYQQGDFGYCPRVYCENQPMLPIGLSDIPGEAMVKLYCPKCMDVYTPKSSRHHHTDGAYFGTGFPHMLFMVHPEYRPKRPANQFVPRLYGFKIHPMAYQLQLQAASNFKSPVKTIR
Experimental: CK2 Kinase Assay was conducted using the protocol as described in Pierre F. et al; J. Med. Chem. 2011, 54, 635-654. The tested compounds in aqueous solution were added at a volume of 10 μL to a reaction mixture comprising 10 μL of assay dilution buffer (ADB; 20 mM MOPS, pH 7.2, 25 mM β-glycerol phosphate, 5 mM EGTA, 1 mM sodium orthovanadate, and 1 mM dithiothreitol), 10 μL of substrate peptide (RRRDDDSDDD, dissolved in ADB at a concentration of 1 mM), 10 μL of recombinant human CK2 (RROP-holoenzyme, 25 ng dissolved in ADB; Millipore). Reactions were initiated by the addition of 10 μL of ATP solution (90% 75 mMMgCl2, 75 μM ATP (final ATP concentration:15 μM) dissolved in ADB; 10% [γ-33P] ATP (stock 1mCi/100 L; 3000 Ci/mmol (Perkin-Elmer) and maintained for 10 min at 30° C. The reactions were quenched with 100 μL of 0.75% phosphoric acid and then transferred to and filtered through a phosphor cellulose filter plate (Millipore). After washing each well five times with 0.75% phosphoric acid, the plate was dried under vacuum for 5 min and, following the addition of 15 μL of scintillation fluid to each well, the residual radioactivity was measured using a Wallac luminescence counter. The IC50 values were derived from eight concentrations of test inhibitors.

H1299 (lung) = assay: In vitro cytotoxic activity assay (MTT), H1299; assay type: cell-based; conditions: Homo sapiens, NCI-H1299; H1299 (lung) cells, exposed for 96 hours; read-out: IC50, concentration of compound eliciting a 50% inhibition of cell proliferation
Experimental: as §1

A375 (melanoma) = assay: In vitro cytotoxic activity assay (MTT), A375; assay type: cell-based; conditions: Homo sapiens, A-375; A375 (melanoma) cells, exposed for 96 hours; read-out: IC50, concentration of compound eliciting a 50% inhibition of cell proliferation
Experimental: as §1

HCT116 (colon) = assay: In vitro cytotoxic activity assay (MTT), HCT116; assay type: cell-based; conditions: Homo sapiens, HCT-116; HCT116 (colon) cells, exposed for 96 hours; read-out: IC50, concentration of compound eliciting a 50% inhibition of cell proliferation
Experimental: as §1

MCF7 (breast) = assay: In vitro cytotoxic activity assay (MTT), MCF7; assay type: cell-based; conditions: Homo sapiens; MCF7 (breast) cells, exposed for 96 hours; read-out: IC50, concentration of compound eliciting a 50% inhibition of cell proliferation
Experimental: as §1

MDA-MB-231 (breast) = assay: In vitro cytotoxic activity assay (MTT), MDA-MB-231; assay type: cell-based; conditions: Homo sapiens; MDA-MB-231 (breast) cells, exposed for 96 hours; read-out: IC50, concentration of compound eliciting a 50% inhibition of cell proliferation
Experimental: as §1

PC3 (prostate) = assay: In vitro cytotoxic activity assay (MTT), PC3; assay type: cell-based; conditions: Homo sapiens, Prostate cell; PC3 (prostate) cells, exposed for 96 hours; read-out: IC50, concentration of compound eliciting a 50% inhibition of cell proliferation
Experimental: as §1

- IC50 (recombinant human CK2): 175 nM
SMILES: O=C(O)c1ccc2c(c1)nc(Nc1cccc(Cl)c1)c1[nH]c3ccncc3c12 [Compound 1, 6-((3-chlorophenyl)amino)-7H-pyrido[3′,4′:4,5]pyrrolo[2,3-c]quinoline-3-carboxylic acid]
- IC50 (MIAPaCa-2 (pancreas)): 1100 nM
- IC50 (HL60 (leukemia)): 2800 nM
- IC50 (H1299 (lung)): 1900 nM
- IC50 (A375 (melanoma)): 3300 nM
- IC50 (HCT116 (colon)): 1500 nM
- IC50 (MCF7 (breast)): 4100 nM
- IC50 (MDA-MB-231 (breast)): 2500 nM
- IC50 (PC3 (prostate)): 1100 nM

Reference: patent publication US11884668B1, “Substituted pyrido[3′,4′:4,5]pyrrolo[2,3-c]quinolines as CK2 inhibitors” (KING FAISAL UNIVERSITY, priority 2023, dated 2024)
